Results on two compounds are retold here after patent US9867886B2, “Complex in which anti-cotinine antibody is bound to conjugate of cotinine and binding substance, and use thereof” (SNU R&DB FOUNDATION, priority 2011, dated 2018).

As usually defined, the LD50 is the dose at which mortality reaches 50%.

m = 2'-O-methyl; r = 2'-OH (RNA); f = 2'-fluoro

One data set concerns humans. Conditions: cited from earlier work.
In a further data set the test system is mouse. The conditions noted are these: cited from earlier work.
For data set [1] the following is noted: in vivo; cited from earlier work.
Data set [2] can be described thus: Pharmacokinetics of cotinine-pegaptanib and its anti-cotinine IgG complex in mice (serum VEGF ELISA). The class given is in vivo. Conditions: ICR mouse, tail vein, 0.135 mg/kg. The procedure:
Male wild-type ICR mouse aged from 4 to 6 weeks were injected through tail vein with cotinine-pegaptanib (0.135 mg/kg) and a cotinine-pegaptanib (0.135 mg/kg)/anti-cotinine IgG (1 mg/kg) complex, diluted in 100 μL of PBS. Each peripheral blood was obtained through the orbital plexus at 0, 0.5, 1, 1.5 and 2 hours after the injection, and the obtained peripheral blood was maintained at a room temperature for 30 minutes then centrifuged at 800 g for 15 minutes to collect supernatant only so that serum was obtained, and analyzed by using ELISA.
Each well of a 96-well ELISA plate was coated with 50 ng of human VEGF dissolved in PBS overnight, and then blocked by PBSB. Then, each serum was diluted in PBSB at a ratio of 1:100, and added to each well with 100 nM of an anti-cotinine IgG The plate was maintained at a room temperature for one hour and washed with PBS-T, and then HRP-bound rabbit anti-human Fc specific IgG (Thermo Fisher Scientific) was added to each well. The resultant mixture was maintained at room temperature for one hour. Subsequently, 3,3′,5,5′-tetramethylbenzidine (TMB) (Thermo Fisher Scientific) was added as a substrate to the resultant mixture, and kept at a room temperature for 15 minutes, followed by measuring the optical density at 650 nm.
In general terms: In an ELISA, binding on a coated surface is turned into a signal by an enzyme label.

As for `CN1C(=O)CC[C@H]1c1cccnc1` [cotinine], in the data set on humans (4-day administration at a daily dose of 1.8 g), the side effects result is reported as “no particular side effects have not been reported”. In addition, the “physiological activity; physiological and behavioral changes” value in the data set on humans (humans, maximally 160 mg for three days) is “any physiological and behavioral changes have not been reported”. For the same compound, the 50% lethal dose (LD50) in the data set on mouse was 2000 to 4000 mg/kg. Moreover, the half-life in serum result in data set [1] is given as “about 16 hours”.
Take “cotinine-pegaptanib: nucleic acid part of pegaptanib RNA aptamer (SEQ ID NO: 5) conjugated with cotinine via amino C6 linker (CGGAAUCAGUGAAUGCUUAUACAUCCG; sugars from the 5' end fmmrrffmmfmmmfmfffmfmfmfffm, backbone not given here; cotinine conjugated via amino C6 linker, further chemistry not fully specified)”: the “degradation after injection into the body” value in data set [2] is on record as “degraded immediate after injection into the body”.
